{"source": "paper PMC7114241", "about": "(Antiviral Research, 2011)", "target": "SARS-CoV M^pro (Severe acute respiratory syndrome coronavirus, UniProt P0C6X7)", "assay_type": "biochemical"}
{"substance": "Dabcyl-KTSAVLQ↓SGFRKME-Edans amide", "values": [{"measurement": "apparent k cat/K m", "value": 2359, "unit": "M^−1·19 s^−1"}, {"measurement": "k cat/K m", "value": 7863, "unit": "M⁻¹ s⁻¹"}, {"measurement": "K m", "setting": "pH 7.3", "value": 24.5, "unit": "µM"}]}
